US20080213275A1, “USE OF MTKI 1 FOR TREATING OR PREVENTING BONE CANCER” (priority 2006, published 2008)

Assays:
[1] = tested on: NCTC2472 fibrosarcoma or MDA-MB231 breast cancer cells injected into bone; assay: Spontaneous paw lifting behaviour (pain) in bone cancer model; type: in vivo, mice; settings: day 14 post tumor cell inoculation; dosed at MTD by oral gavage once daily; 4 minutes observation; vehicle 80%
Description: Male C3H/HeNCrl mice for the NCTC2472 mouse fibrosarcoma cells (20-25 g, Charles River, Sulzfeld, Germany) or female NMRI Nude mice for the MDA MB 231 human breast cancer cells (Janvier, France) were used. Induction of bone cancer was carried out as previously described (Schwei et al., 1999^1). Induction of general anaesthesia was performed under 4% isoflurane in a mixture of 30% O2 and 70% air (1000 ml/ min). Anaesthesia was then maintained at 2.5% isoflurane for the duration of the surgical procedure. The left hind paw was shaved and disinfected with povidone-iodine followed by 70% ethanol. A superficial 1 cm incision was made over the knee overlaying the patella. The patella ligament was cut, exposing the condyles of the distal femur. A 23-gauge needle was inserted at the level of the intercondylar notch and the intramedullary canal of the femur to create a cavity for injection of the cells. Tumour cells (2.5×10^6 cells/20 μl) were then injected into the bone cavity using a 0.3 ml syringe. To prevent leakage of cells outside the bone, the injection site was sealed with dental acrylic (Paladur, Heraeus Kulzer, GmbH, Wehrheim, Germany) and the wound closed with skin stitches. For the sham-operated group, an identical procedure was followed except that medium without cells was injected. […]

[2] = tested on: MDA B231 bone homing clone cells; assay: Bone cancer metastasis model, histological sections after 42 days; type: in vivo, mice; settings: po, qd
Description: (§1) Male C3H/HeNCrl mice for the NCTC2472 mouse fibrosarcoma cells (20-25 g, Charles River, Sulzfeld, Germany) or female NMRI Nude mice for the MDA MB 231 human breast cancer cells (Janvier, France) were used. Induction of bone cancer was carried out as previously described (Schwei et al., 1999^1). Induction of general anaesthesia was performed under 4% isoflurane in a mixture of 30% O2 and 70% air (1000 ml/ min). Anaesthesia was then maintained at 2.5% isoflurane for the duration of the surgical procedure. The left hind paw was shaved and disinfected with povidone-iodine followed by 70% ethanol. A superficial 1 cm incision was made over the knee overlaying the patella. The patella ligament was cut, exposing the condyles of the distal femur. A 23-gauge needle was inserted at the level of the intercondylar notch and the intramedullary canal of the femur to create a cavity for injection of the cells. Tumour cells (2.5×10^6 cells/20 μl) were then injected into the bone cavity using a 0.3 ml syringe. To prevent leakage of cells outside the bone, the injection site was sealed with dental acrylic (Paladur, Heraeus Kulzer, GmbH, Wehrheim, Germany) and the wound closed with skin stitches. For the sham-operated group, an identical procedure was followed except that medium without cells was injected.
In the bone cancer metastasis model MDA B231 bone homing clone cells were inoculated into the tibia as described. After 42 days, animals were sacrificed and the amputated paws placed in fixative. The legs were de-calcified and sections cut to determine levels of bone destruction.

[3] = tested on: NCTC2472 fibrosarcoma or MDA-MB231 breast cancer cells injected into bone; assay: Evaluation of bone destruction by μCT of ipsilateral left hind limbs; type: in vivo, mice; settings: tumor inoculated animals, dosed at MTD; compared with vehicle and sham
Description: as §1

[4] = oral gavage, once daily
[5] = Tissue distribution profile; type: in vivo

Row | Compound | percentage of the time the left hind paw was raised (spontaneous paw lifting) [1] | detectable tumor in histological sections (FIG. 3) ([2]; 100 mg per kg) | signs of tumor cells and bone destruction ([2]; 100 mg per kg) | amount of tumor growth and amount of bone destruction ([2]; dose dependence) | osteolytic bone destruction (μCt reconstructions, FIG. 2) [3] | maximum tolerated dose (MTD) [4] | tissue distribution to bone marrow ([5]; in vivo) | blood brain barrier penetration ([5]; intact blood brain barrier)
1 | COc1cc2ncnc3c2cc1OCCCCCN(C)Cc1ccc(Br)cc1N3 [Compound 1, 4,6-ethanediylidenepyrimido[4,5-b][6,1,12]benzoxadiazacyclo-pentadecine, 17-bromo-8,9,10,11,12,13,14,19-octahydro-20-methoxy-13-methyl] | ~8% | detectable tumor is hardly present | no signs of tumor cell not any signs bone destruction | dose dependently reduced | significantly less bone destruction | 200 mg per kg | preferential tissue distribution to the bone marrow compartment | ability to cross the intact blood brain barrier
2 | COc1cc2ncnc(Nc3ccc(F)c(Cl)c3)c2cc1OCCCN1CCOCC1 [Iressa, reference compound] | more than 35% | – | – | – | Considerable bone loss | 50 mg per kg | – | –
